In test [1] the test system is human monocytic cell line U937. In words: Human U937 cellular necroptosis assay (TNFalpha + z-VAD-FMK, Cell Titer-Glo viability). The test is classed as cell-based. Conditions: U937 cells, 25 ng/mL human TNFalpha + 25 μM z-VAD-FMK, read-out: hU937 Avg IC50. In a few lines:
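Readout is CellTiter-Glo 2.0 luminescence after 22 h at 37° C with compound, in cells triggered by human TNFalpha (25 ng/mL) and z-VAD-FMK (25 μM) in phenol red-free RPMI/10% FBS. Values are run-averaged IC50s from a four-parameter logistic curve.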

Another test has as its target RIPK1 (Homo sapiens (Human), UniProt Q13546). In words: ADP-Glo kinase assay (RIPK1 activity, conversion of ATP to ADP). It counts as biochemical. Particulars: for IC50: 5 nM RIPK1, 50 μM ATP, 6 h reaction, read-out: RIPK1 Enzyme Avg IC50. In a few lines: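 RIPK1 (5 nM final) was preincubated 10 min at rt with 1:3-diluted compounds in HEPES pH 7.5/MgCl2/DTT/BSA/CHAPS buffer. ATP (50 μM final) was then added for 6 h, and ADP formed was read by ADP-Glo luminescence. IC50 values came from four-parameter logistic fitting.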

Like-named read-outs stand apart in the source and are kept apart here.

Chain of RIPK1 (Q13546 1-327): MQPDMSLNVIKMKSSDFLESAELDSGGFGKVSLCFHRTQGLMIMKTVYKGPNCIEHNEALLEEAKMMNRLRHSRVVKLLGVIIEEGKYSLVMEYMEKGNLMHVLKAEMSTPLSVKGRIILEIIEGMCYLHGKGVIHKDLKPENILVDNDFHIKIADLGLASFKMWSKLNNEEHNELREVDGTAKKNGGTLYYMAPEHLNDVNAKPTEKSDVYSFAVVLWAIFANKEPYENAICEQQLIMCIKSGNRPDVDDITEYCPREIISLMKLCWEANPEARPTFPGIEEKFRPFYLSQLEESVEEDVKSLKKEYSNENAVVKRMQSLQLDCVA

In the case of `Cn1c(=O)n(CC23CC(C(=O)N4N=CCC4c4cc(F)cc(F)c4)(C2)C3)c2ccccc21` (centres unmarked) [Example 110, 1-((3-(5-(3,5-difluorophenyl)-4,5-dihydro-1H-pyrazole-1-carbonyl)bicyclo[1.1.1]-pentan-1-yl)methyl)-3-methyl-1,3-dihydro-2H-benzo[d]imidazol-2-one], the IC50 stood at 734 nM in test [1] (Homo sapiens, U-937, 22 h) and 134 nM on RIPK1.

On to `O=C(N1N=CCC1c1cc(F)cc(F)c1)C12CC(Cn3cc4cc(F)ccc4n3)(C1)C2` (centres unmarked) [Example 3, (5-(3,5-Difluorophenyl)-4,5-dihydro-1H-pyrazol-1-yl)(3-((5-fluoro-2H-indazol-2-yl)methyl)bicyclo[1.1.1]pentan-1-yl)methanone], for which the IC50 in test [1] (Homo sapiens, U-937, 22 h) was 112 nM; at RIPK1, 51 nM.

With `O=C(N1N=CCC1c1cc(F)cc(F)c1)C12CC(COc3cc(Br)ncn3)(C1)C2` (centres unmarked) [Example 6, (3-(((6-Bromopyrimidin-4-yl)oxy)methyl)bicyclo[1.1.1]pentan-1-yl)(5-(3,5-difluorophenyl)-4,5-dihydro-1H-pyrazol-1-yl)methanone], the IC50 was 20 nM in test [1] (Homo sapiens, U-937, 22 h) and 23 nM at RIPK1.

`COc1ccnc(OCC23CC(C(=O)N4N=CCC4c4cc(F)cc(F)c4)(C2)C3)n1` (centres unmarked) [Example 327, (5-(3,5-difluorophenyl)-4,5-dihydro-1H-pyrazol-1-yl)(3-(((4-methoxypyrimidin-2-yl)oxy)methyl)bicyclo[1.1.1]-pentan-1-yl)methanone]: the IC50 in test [1] (Homo sapiens, U-937, 22 h) amounted to 381 nM; on RIPK1, 75 nM.

With `N#Cc1cnn(CC23CC(C(=O)N4N=CCC4c4cc(F)cc(F)c4)(C2)C3)c1` (centres unmarked) [Example 71, 1-((3-(5-(3,5-difluorophenyl)-4,5-dihydro-1H-pyrazole-1-carbonyl)bicyclo[1.1.1]-pentan-1-yl)methyl)-1H-pyrazole-4-carbonitrile], the half-inhibitory concentration (IC50) was found to be 134 nM in test [1] (Homo sapiens, U-937, 22 h) and 39 nM on RIPK1.

For `N#Cc1ccc2c(cnn2CC23CC(C(=O)N4CCC4c4ccc(F)cc4)(C2)C3)c1` (centres unmarked) [Example 234, 1-((3-(2-(4-fluorophenyl)-azetidine-1-carbonyl)bicyclo-[1.1.1]pentan-1-yl)methyl)-1H-indazole-5-carbonitrile], the concentration for half-maximal inhibition (IC50) in test [1] (Homo sapiens, U-937, 22 h) was found to be 1970 nM; on RIPK1 it was 211 nM.

`N#Cc1cccc2cnn(CC34CC(C(=O)N5N=CCC5c5cc(F)cc(F)c5)(C3)C4)c12` (centres unmarked) [Example 143, 1-((3-(5-(3,5-difluorophenyl)-4,5-dihydro-1H-pyrazole-1-carbonyl)bicyclo[1.1.1]-pentan-1-yl)methyl)-1H-indazole-7-carbonitrile]: the IC50 was 495 nM in test [1] (Homo sapiens, U-937, 22 h) and 122 nM at RIPK1.

Turning to `N#Cc1cc(OCC23CC(C(=O)N4CC(F)CC4c4cccc(F)c4)(C2)C3)ncn1` (centres unmarked) [Example 92, 6-((3-(4-fluoro-2-(3-fluorophenyl)pyrrolidine-1-carbonyl)bicyclo[1.1.1]-pentan-1-yl)methoxy)-pyrimidine-4-carbonitrile], the half-inhibitory concentration (IC50) came out at 518 nM in test [1] (Homo sapiens, U-937, 22 h) and 56 nM on RIPK1.

For the compound `O=C(N1N=CCC1c1cc(F)cc(F)c1)C12CC(Cn3ncc4c(F)cccc43)(C1)C2` (centres unmarked) [Example 22, (5-(3,5-Difluorophenyl)-4,5-dihydro-1H-pyrazol-1-yl)(3-((4-fluoro-1H-indazol-1-yl)methyl)bicyclo[1.1.1]pentan-1-yl)methanone], the half-maximal inhibitory concentration (IC50) stood at 5 nM in test [1] (Homo sapiens, U-937, 22 h) and 11 nM at RIPK1.

As to “(5-(3,5-difluorophenyl)-4,5-dihydro-1H-pyrazol-1-yl)(3-((6-fluoro-1H-benzo[d]-imidazol-1-yl)methyl)-bicyclo[1.1.1]pentan-1-yl)methanone and (5-(3,5-difluorophenyl)-4,5-dihydro-1H-pyrazol-1-yl)(3-((5-fluoro-1H-benzo[d]-imidazol-1-yl)methyl)-bicyclo[1.1.1]pentan-1-yl)methanone [Example 192]”, the IC50 was 197 nM in test [1] (22 h) and 80 nM at RIPK1.

Regarding `O=C(N1N=CCC1c1cc(F)cc(F)c1)C12CC(COc3ncc(F)cc3F)(C1)C2` (centres unmarked) [Example 321, (5-(3,5-difluorophenyl)-4,5-dihydro-1H-pyrazol-1-yl)(3-(((3,5-difluoropyridin-2-yl)-oxy)methyl)bicyclo[1.1.1]-pentan-1-yl)methanone], the 50% inhibitory concentration (IC50) was 45 nM in test [1] (Homo sapiens, U-937, 22 h) and 18 nM at RIPK1.

With `O=C(N1N=CCC1c1ccccc1)C12CC(Cn3ncc4ncccc43)(C1)C2` (centres unmarked) [Example 147, (3-((1H-pyrazolo[4,3-b]-pyridin-1-yl)methyl)-bicyclo[1.1.1]pentan-1-yl)(5-phenyl-4,5-dihydro-1H-pyrazol-1-yl)methanone], the IC50 stood at 142 nM in test [1] (Homo sapiens, U-937, 22 h) and 30 nM at RIPK1.

On to `Cn1cc(-c2cc(OCC34CC(C(=O)N5CC(F)CC5c5cccc(F)c5)(C3)C4)ncn2)cn1` (single isomer, unassigned) [Example 30, (4-Fluoro-2-(3-fluorophenyl)pyrrolidin-1-yl)(3-(((6-(1-methyl-1H-pyrazol-4-yl)pyrimidin-4-yl)oxy)methyl)bicyclo[1.1.1]pentan-1-yl)methanone], for which the IC50 worked out at 708 nM in test [1] (22 h) and 124 nM at RIPK1.

As to `O=C(N1N=CCC1c1cc(F)cc(F)c1)C12CC(Cn3nc4ccc(F)cc4n3)(C1)C2` (centres unmarked) [Example 85, (5-(3,5-difluorophenyl)-4,5-dihydro-1H-pyrazol-1-yl)(3-((5-fluoro-2H-benzo[d]-[1,2,3]triazol-2-yl)methyl)-bicyclo[1.1.1]pentan-1-yl)-methanone], the IC50 in test [1] (Homo sapiens, U-937, 22 h) was 24 nM; on RIPK1, 18 nM.

For `O=C(N1N=CCC1c1ccccc1)C12CC(Cn3ncc4c(F)cccc43)(C1)C2` (centres unmarked) [Example 81, (3-((4-fluoro-1H-indazol-1-yl)methyl)bicyclo[1.1.1]-pentan-1-yl)(5-phenyl-4,5-dihydro-1H-pyrazol-1-yl)-methanone], the IC50 in test [1] (Homo sapiens, U-937, 22 h) was 12 nM; on RIPK1 it was 11 nM.

For the compound `Cc1csc(C2CC=NN2C(=O)C23CC(Cn4cc(C#N)cn4)(C2)C3)n1` (centres unmarked) [Example 170, 1-((3-(5-(4-methylthiazol-2-yl)-4,5-dihydro-1H-pyrazole-1-carbonyl)bicyclo[1.1.1]-pentan-1-yl)methyl)-1H-pyrazole-4-carbonitrile], the IC50 is 9890 nM in test [1] (Homo sapiens, U-937, 22 h) and 4670 nM on RIPK1.

Take `O=C(N1N=CCC1c1cc(F)cc(F)c1)C12CC(Cn3cc(-c4ccccn4)cn3)(C1)C2` (centres unmarked) [Example 111, (5-(3,5-difluorophenyl)-4,5-dihydro-1H-pyrazol-1-yl)(3-((4-(pyridin-2-yl)-1H-pyrazol-1-yl)methyl)-bicyclo[1.1.1]pentan-1-yl)methanone]: the IC50 in test [1] (Homo sapiens, U-937, 22 h) worked out at 249 nM; on RIPK1 it was 43 nM.

Turning to `N#Cc1ccc2nn(CC34CC(C(=O)N5N=CCC5c5cc(F)cc(F)c5)(C3)C4)cc2c1` (centres unmarked) [Example 61, 2-((3-(5-(3,5-difluorophenyl)-4,5-dihydro-1H-pyrazole-1-carbonyl)bicyclo[1.1.1]-pentan-1-yl)methyl)-2H-indazole-5-carbonitrile], the IC50 in test [1] (Homo sapiens, U-937, 22 h) was determined as 211 nM; on RIPK1, 45 nM.

On to `O=C(N1N=CCC1c1cc(F)cc(F)c1)C12CC(Cn3ccc4cc(F)ccc43)(C1)C2` (centres unmarked) [Example 133, (5-(3,5-difluorophenyl)-4,5-dihydro-1H-pyrazol-1-yl)(3-((5-fluoro-1H-indol-1-yl)-methyl)bicyclo[1.1.1]pentan-1-yl)methanone], for which the IC50 in test [1] (Homo sapiens, U-937, 22 h) was 10 nM; on RIPK1 it was 20 nM.

Consider `O=C(N1N=CCC1c1cc(F)cc(F)c1)C12CC(C(F)c3cccc(Cl)c3)(C1)C2` (centres unmarked) [Example 42, (3-((3-chlorophenyl)fluoromethyl)bicyclo[1.1.1]pentan-1-yl)(5-(3,5-difluorophenyl)-4,5-dihydro-1H-pyrazol-1-yl)methanone], for which the IC50 is 51 nM in test [1] (Homo sapiens, U-937, 22 h) and 31 nM on RIPK1.

As to `N#Cc1cnn(CC23CC(C(=O)N4N=CCC4c4cnccn4)(C2)C3)c1` (centres unmarked) [Example 167, 1-((3-(5-(pyrazin-2-yl)-4,5-dihydro-1H-pyrazole-1-carbonyl)bicyclo[1.1.1]-pentan-1-yl)methyl)-1H-pyrazole-4-carbonitrile], the half-inhibitory concentration (IC50) was found to be 1880 nM in test [1] (Homo sapiens, U-937, 22 h) and 306 nM at RIPK1.

`N#Cc1ccc2c(cnn2CC23CC(C(=O)N4N=CCC4c4ccccc4)(C2)C3)c1` (centres unmarked) [Example 52, 1-((3-(5-phenyl-4,5-dihydro-1H-pyrazole-1-carbonyl)-bicyclo[1.1.1]pentan-1-yl)methyl)-1H-indazole-5-carbonitrile]: the half-inhibitory concentration (IC50) in test [1] (Homo sapiens, U-937, 22 h) is 16 nM; at RIPK1 it was 24 nM.

With `N#Cc1ccc2c(cnn2CC23CC(C(=O)N4CCC4c4cccc(F)c4)(C2)C3)c1` (centres unmarked) [Example 252, 1-((3-(2-(3-fluorophenyl)-azetidine-1-carbonyl)bicyclo-[1.1.1]pentan-1-yl)methyl)-1H-indazole-5-carbonitrile], the concentration for half-maximal inhibition (IC50) in test [1] (Homo sapiens, U-937, 22 h) was found to be 436 nM; on RIPK1 it was 43 nM.

As for `N#Cc1ccc2c(cnn2CC23CC(C(=O)N4N=CCC4c4cncc(F)c4)(C2)C3)c1` (centres unmarked) [Example 128, 1-((3-(5-(5-fluoropyridin-3-yl)-4,5-dihydro-1H-pyrazole-1-carbonyl)bicyclo[1.1.1]-pentan-1-yl)methyl)-1H-indazole-5-carbonitrile], the IC50 in test [1] (Homo sapiens, U-937, 22 h) is 48 nM; at RIPK1 it was 17 nM.

Turning to `N#Cc1cnc(OCC23CC(C(=O)N4N=CC[C@@H]4c4cc(F)cc(F)c4)(C2)C3)cn1` [Example 200, (R)-5-((3-(5-(3,5-difluorophenyl)-4,5-dihydro-1H-pyrazole-1-carbonyl)bicyclo[1.1.1]pentan-1-yl)methoxy)pyrazine-2-carbonitrile], in test [1] (Homo sapiens, U-937, 22 h), the IC50 was determined as 8560 nM. Further, at RIPK1 (enantiomers separated by SFC, assay not named), the “observed potency relative to the other enantiomer” value is on record as “less potent isomer”.
